Data as given in ChEMBL document CHEMBL1151385, “Antineoplastic Agents 78. Isolation of Palystatins 1-3 From the Indian Ocean Palythoa liscia” (J Nat Prod, 1982).

Assays:
Ehrlich = test: In vivo cytotoxicity against mouse EAC cells; assay type: functional, organism-based
P388 = test: In vivo cytotoxicity against mouse P388 cells assessed as life extension at 0.1 ug/kg; assay type: functional, organism-based

C=C(/C=C\C[C@@H](O)[C@@H](O)[C@H](O)C/C=C/C=C\[C@@H](O)C[C@@H]1O[C@H](C[C@@H](O)[C@H](O)C[C@H]2O[C@H]([C@H](O)[C@H](O)CC[C@H](O)/C=C/[C@H](C)[C@@H](O)C[C@]3(O)O[C@H](C[C@@H](O)CCCCCCC[C@@]45C[C@@H](C)C[C@@](C)(O4)[C@@H](C[C@@H](C)CCCCC[C@@H](O)[C@H](O)[C@H](O)[C@@H](O)[C@H](O)[C@H]4O[C@H](C[C@H](O)[C@H](O)/C(C)=C/[C@H](O)C[C@@H](C)[C@H](O)C(=O)N/C=C/C(=O)NCCCO)[C@H](O)[C@@H](O)[C@@H]4O)O5)[C@H](O)[C@@H](O)[C@H]3O)C[C@@H](O)[C@@H]2O)[C@@H](O)[C@H](O)[C@H]1O)CC[C@H](O)[C@@H](O)[C@H](O)[C@H](C)C[C@H]1O[C@H](/C=C\[C@@H](O)CC[C@@H]2C[C@@H]3C[C@H](O2)[C@@H](CC[C@H]2O[C@H](CN)C[C@H]2O)O3)[C@@H](O)[C@H](O)[C@H]1O
Activity (Ehrlich): 0.34 µg/kg
Activity (P388): 32%
